Assay results reported in patent US6368788B1 (priority 1987, dated 2002).
Marks after values point to notes of the source that are not given here.

Columns and labels:
[1] = Survival in LPS-induced endotoxic shock; assay type: in vivo, CBA mice
Procedure: The mortality results were evaluated using the Litchfield-Wilcoxon's probit analysis method and a computer program written to conduct probit analyses.

Rauscher MuLV = assay: Anti-viral response to Rauscher MuLV; assay type: in vivo, mice; conditions: days −2, −1, 0, +1, and +2; for Viremia: ± SEM
Text: Innate mechanisms of anti-viral immunity are important to survival of the host. The Rauscher murine leukemia virus (MuLV) is an example of a highly virulent animal retrovirus infection, first isolated and characterized by Dr. Rauscher from BALB/c mouse tissues in 1962. […] The virus employed in present GLP/blinded study was a murine leukemia complex known to induce progressive erythroleukemia in mice (i.e., Rauscher MuLV and replication-defective Rauscher spleen focus-forming virus). Disease manifested within about 6 days with death by about 50 days. Measurements of splenomegaly, blood reverse transcriptase, virus plaque assays (i.e., XC-plaque assay for viremia using SC-1 host cells) and serum anti-viral antibody titers were used to assess infection. Spleens achieved about 2.0 grams in weight within 21 days of infection, as compared with a normal spleen weights in an uninfected animals of about 0.1 gram.
Mice were inoculated with Rauscher MuLV complex (0.1 ml/7.8×10^4 PFU/mL) on day 0 and sacrificed on day 21. Test groups were comprised of 10 mice and control groups 6 mice. Control articles included saline and AZT (in drinking water at about 1.25 mg/mouse/day≈63 mg/kg/day/mouse). […] A non-infected group of mice was also sacrificed on day 21 to provide normal control values.
In EXAMPLE 38, SC-1 cells were originally derived from murine embryos, and XC cells (a rat tumor cell line induced by Rous Sarcoma Virus) were obtained from the ATCC in Rockville, Md.

YAC-1 target cells = assay: NK cytotoxic activity of splenocytes on YAC-1 target cells; assay type: in vivo, C3H/HeJ mice; conditions: for Cytotoxicity Change (%): vs saline
M. bovis = assay type: in vivo, mice; conditions: Group 8; INH 5 mg/kg sc daily

Glu-Trp
Survivors (%) ([1]; 24 hrs after LD99 LPS ip, 10 μg/kg ip daily x3 prophylactic): 36%
Survivors ([1]; 24 hrs after LD99 LPS ip, 10 μg/kg ip daily x3 prophylactic, 11 animals): 4
Survivors (%) ([1]; 24 hrs after LD99 LPS ip, 100 μg/kg ip daily x3 prophylactic): 80* %
Survivors ([1]; 24 hrs after LD99 LPS ip, 100 μg/kg ip daily x3 prophylactic, 10 animals): 8
Survivors (%) ([1]; 30 hrs after LD99 LPS ip, 10 μg/kg ip daily x3 prophylactic): 9%
Survivors ([1]; 30 hrs after LD99 LPS ip, 10 μg/kg ip daily x3 prophylactic, 11 animals): 1
Survivors (%) ([1]; 30 hrs after LD99 LPS ip, 100 μg/kg ip daily x3 prophylactic): 40* %
Survivors ([1]; 30 hrs after LD99 LPS ip, 100 μg/kg ip daily x3 prophylactic, 10 animals): 4
Reduction Splenomegaly (%) (Rauscher MuLV; 0.002 mg/kg): −9%
Spleen Weight (mean ± SD) (Rauscher MuLV; 0.002 mg/kg): 0.49 ± 0.31
Reduction Splenomegaly (%) (Rauscher MuLV; 0.005 mg/kg): −3%
Spleen Weight (mean ± SD) (Rauscher MuLV; 0.005 mg/kg): 0.47 ± 0.29
Viremia (Rauscher MuLV; 0.005 mg/kg): 3.25 ± 0.27 log10PFU/ml
Reduction Splenomegaly (%) (Rauscher MuLV; 0.02 mg/kg): 12%
Spleen Weight (mean ± SD) (Rauscher MuLV; 0.02 mg/kg): 0.42 ± 0.32
Reduction Splenomegaly (%) (Rauscher MuLV; 0.05 mg/kg): 30%
Spleen Weight (mean ± SD) (Rauscher MuLV; 0.05 mg/kg): 0.36 ± 0.11
Viremia (Rauscher MuLV; 0.05 mg/kg): 2.99 ± 0.28 log10PFU/ml
Reduction Splenomegaly (%) (Rauscher MuLV; 0.17 mg/kg): 12%
Spleen Weight (mean ± SD) (Rauscher MuLV; 0.17 mg/kg): 0.42 ± 0.26
Reduction Splenomegaly (%) (Rauscher MuLV; 0.5 mg/kg): −12%
Spleen Weight (mean ± SD) (Rauscher MuLV; 0.5 mg/kg): 0.48 ± 0.3
Viremia (Rauscher MuLV; 0.5 mg/kg): 3.31 ± 0.39 log10PFU/ml
Reduction Splenomegaly (%) (Rauscher MuLV; 1.75 mg/kg): 3%
Spleen Weight (mean ± SD) (Rauscher MuLV; 1.75 mg/kg): 0.45 ± 0.39
Reduction Splenomegaly (%) (Rauscher MuLV; 5 mg/kg): 6%
Spleen Weight (mean ± SD) (Rauscher MuLV; 5 mg/kg): 0.44 ± 0.15
Viremia (Rauscher MuLV; 5 mg/kg): 3.43 ± 0.368 log10PFU/ml
% Cytotoxicity (mean +/− S.D.) (YAC-1 target cells; dose 1 (μg/kg ip daily 7 days)): 10.7 ± 14%
Cytotoxicity Change (%) (YAC-1 target cells; dose 1): 25 ↑ %
% Cytotoxicity (mean +/− S.D.) (YAC-1 target cells; dose 10 (μg/kg ip daily 7 days)): 14.3 ± 1.7%
Cytotoxicity Change (%) (YAC-1 target cells; dose 10): 67 ↑ %
% Cytotoxicity (mean +/− S.D.) (YAC-1 target cells; dose 1000 (μg/kg ip daily 7 days)): 14.9 ± 2.9%
Cytotoxicity Change (%) (YAC-1 target cells; dose 1000): 75* ↑ %

NNC(=O)c1ccncc1 [Isoniazid, reference compound]
Survival Mean (M. bovis): 57 ± 2
